Laboratory results from patent publication US20240158446A1, “CYCLIC COMPOUND HAVING SELECTIVE INHIBITORY ACTION ON KRAS OVER HRAS AND NRAS” (CHUGAI SEIYAKU KABUSHIKI KAISHA, priority 2021, published 2024).
Like-named read-outs stand apart in the source and are kept apart here. *1 amine or outer side, *2 acyl side, *3 side chain or, on linkers, in order; H or OH if unused. Where a SMILES comes first, the peptide text is derived from it. Bridges are numbered along the chain shown (N, C = ends). [ ]: non-standard residue; d: D form. The star is where a group is joined. hPhe(3,5-F2-4-CF3) = N[C@@H](CCc1cc(F)c(C(F)(F)F)c(F)c1)C(=O)O; hPhe(3-Cl-4-CF3) = N[C@@H](CCc1ccc(C(F)(F)F)c(Cl)c1)C(=O)O; X23 = C=CCCN([C@@H](Cc1ccc(C(F)(F)F)cc1)C(=O)[*:2])[*:1]; NPrPhe(4-CF3) = CCCN[C@@H](Cc1ccc(C(F)(F)F)cc1)C(=O)O; X9 = CCCN([C@@H](Cc1ccc(F)cc1)C(=O)[*:2])[*:1]; NMeGly(cPent) = CN[C@H](C(=O)O)C1CCCC1; Hyp = O=C(O)[C@@H]1C[C@@H](O)CN1; αMeF = C[C@](N)(Cc1ccccc1)C(=O)O; NMeD = CN[C@@H](CC(=O)O)C(=O)O; NMeL = CN[C@@H](CC(C)C)C(=O)O; Iva = CC[C@](C)(N)C(=O)O; Morpholide = C1CN(*)CCO1; NMeA = CN[C@@H](C)C(=O)O; Ac5c = NC1(C(=O)O)CCCC1; Aze = O=C(O)[C@@H]1CCN1; Sar = CNCC(=O)O

Columns and labels:
[1] = molecular target: GDP-bound KRAS wild-type protein (Homo sapiens, UniProt P01116); assay: Binding to KRAS by surface plasmon resonance (SPR), Single Cycle Kinetics; details: GDP-bound KRAS wild-type protein, read-out: KRAS KD
[2] = molecular target: GDP-bound NRAS wild-type protein (Homo sapiens, UniProt P01111); assay: Binding to NRAS by surface plasmon resonance (SPR), Single Cycle Kinetics; details: SPR, GDP-bound NRAS wild-type protein vs GDP-bound KRAS wild-type protein
[3] = molecular target: GDP-bound HRAS wild-type protein (Homo sapiens, UniProt P01112); assay: Binding to HRAS by surface plasmon resonance (SPR), Single Cycle Kinetics; details: SPR, GDP-bound HRAS wild-type protein vs GDP-bound KRAS wild-type protein
[4] = SPR, Single Cycle Kinetics, 1:1 binding model
[5] = SPR Single Cycle Kinetics, 1:1 binding model

Chain of GDP-bound KRAS wild-type protein (P01116 whole entry): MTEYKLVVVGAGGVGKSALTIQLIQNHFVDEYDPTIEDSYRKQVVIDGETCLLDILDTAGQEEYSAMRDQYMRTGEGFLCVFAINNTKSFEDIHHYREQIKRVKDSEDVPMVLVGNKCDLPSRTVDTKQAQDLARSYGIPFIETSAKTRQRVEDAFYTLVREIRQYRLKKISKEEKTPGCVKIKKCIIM
Chain of GDP-bound NRAS wild-type protein (P01111 whole entry): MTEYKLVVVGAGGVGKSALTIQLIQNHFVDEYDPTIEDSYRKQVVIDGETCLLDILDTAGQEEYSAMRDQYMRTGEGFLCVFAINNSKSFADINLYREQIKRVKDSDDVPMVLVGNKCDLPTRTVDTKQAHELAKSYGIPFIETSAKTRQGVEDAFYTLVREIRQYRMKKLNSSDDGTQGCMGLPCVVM
Chain of GDP-bound HRAS wild-type protein (P01112 whole entry): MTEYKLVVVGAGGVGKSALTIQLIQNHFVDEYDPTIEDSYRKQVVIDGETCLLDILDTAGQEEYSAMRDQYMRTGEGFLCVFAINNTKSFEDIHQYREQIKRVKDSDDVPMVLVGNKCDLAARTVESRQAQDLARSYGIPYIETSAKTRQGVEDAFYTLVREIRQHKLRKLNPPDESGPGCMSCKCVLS

Compound | Kd [1, 5] [nM] | NRAS/KRAS (ratio of KD value for NRAS to KD value for KRAS) [2] | HRAS/KRAS (ratio of KD value for HRAS to KD value for KRAS) [3] | NRAS/KRAS (ratio of KD value with respect to NRAS to KD value with respect to KRAS) [2] | HRAS/KRAS (ratio of KD value with respect to HRAS to KD value with respect to KRAS) [3] | other results
CCO[C@@H]1C[C@H]2C(=O)NC3(CCC3)C(=O)N(C)[C@@H](C3CCCC3)C(=O)N(C)[C@H](C(=O)N(C)CC)CC(=O)N(C)[C@@H](CC(C)C)C(=O)N[C@@H]([C@@H](C)CC)C(=O)N(C)CC(=O)N(C)[C@H]3C/C=C\CCN(C3=O)[C@@H](Cc3ccc(C(F)(F)F)cc3)C(=O)N(C)CC(=O)N[C@@H](CCc3cc(F)c(C(F)(F)F)c(F)c3)C(=O)N2C1 [PP1300, (2S,8S,12R,14S,20S,23S,27S,30S,36S,38Z)-20-cyclopentyl-8-[2-[3,5-difluoro-4-(trifluoromethyl)phenyl]ethyl]-12-ethoxy-N-ethyl-27-isobutyl-N,4,19,22,26,32,35-heptamethyl-30-[(1S)-1-methylpropyl]-3,6,9,15,18,21,25,28,31,34,42-undecaoxo-2-[[4-(trifluoromethyl)phenyl]methyl]spiro[1,4,7,10,16,19,22,26,29,32,35-undecazatricyclo[34.5.1.0^10,14]dotetracont-38-ene-17,1′-cyclobutane]-23-carboxamide] | – | – | – | – | – | Kd [1, 4]: 0.082 nM; NRAS/KRAS (ratio of KD value for NRAS to KD value for KRAS) ([2]; KD ratio class): A (a compound having 10 or more and less than 20 is denoted as A); HRAS/KRAS (ratio of KD value for HRAS to KD value for KRAS) ([3]; KD ratio class): A (a compound having 10 or more and less than 20 is denoted as A)
CCCN1C(=O)CN(C)C(=O)CN(C)C(=O)[C@H]([C@@H](C)CC)NC(=O)[C@H](CC(C)C)N(C)C(=O)C[C@@H](C(=O)N2CCOCC2)N(C)C(=O)[C@H](C2CCCC2)N(C)C(=O)C2(CCCC2)NC(=O)[C@@H]2CCCN2C(=O)[C@H](CCc2ccc(C(F)(F)F)c(Cl)c2)NC(=O)CN(C)C(=O)[C@@H]1Cc1ccc(F)cc1 [PP0214] ([NMeL]I[Sar][Sar][X9][Sar][hPhe(3-Cl-4-CF3)]P[Ac5c][NMeGly(cPent)][NMeD]-Morpholide; lactam N-11) | 0.13 | B (a compound having 3 or more and less than 10 is denoted as B) | C (A compound having a KD ratio of 0.1 or more and less than 3 is denoted as C) | – | – | –
CC[C@H](C)[C@@H]1NC(=O)[C@H](CC(C)C)N(C)C(=O)C[C@@H](C(=O)N(C)C)N(C)C(=O)[C@H](C2CCCC2)N(C)C(=O)C2(CCCC2)NC(=O)[C@@H]2CCCN2C(=O)[C@H](CCc2ccc(C(F)(F)F)c(Cl)c2)NC(=O)CN(C)C(=O)[C@H](Cc2ccc(C(F)(F)F)cc2)N2CC/C=C\COC[C@@H](C2=O)N(C)C(=O)CN(C)C1=O [PP0622] | 11 | – | – | B (a compound having 3 or more and less than 10 is denoted as B) | B (a compound having 3 or more and less than 10 is denoted as B) | –
CCCO[C@@H]1C[C@H]2C(=O)NC3(CC(C)(C)C3)C(=O)N(C)[C@@H](C3CCCC3)C(=O)N(C)[C@H](C(=O)N3CCCC3)CC(=O)N(C)[C@H]3CCCc4ccc(cc4)C[C@@H](C(=O)N(C)CC(=O)N[C@@H](CCc4ccc(C(F)(F)F)c(OC)c4)C(=O)N2C1)N1CC/C=C\C[C@@H](C1=O)N(C)C(=O)CN(C)C(=O)[C@H]([C@@H](C)CC)NC3=O [PP3065] | – | A (a compound having 10 or more and less than 20 is denoted as A) | B (a compound having 3 or more and less than 10 is denoted as B) | – | – | Kd ([1]; SPR, Single Cycle Kinetics): 0.23 nM
CCCOC[C@H]1C(=O)N[C@@H]([C@@H](C)CC)C(=O)N(C)CC(=O)N(C)[C@H]2C/C=C\CCN(C2=O)[C@@H](Cc2ccc(C(F)(F)F)cc2)C(=O)N(C)CC(=O)N[C@@H](CCc2cc(F)c(C(F)(F)F)c(F)c2)C(=O)N2C[C@H](OCC)C[C@H]2C(=O)NC2(CCC2)C(=O)N(C)[C@@H](C2CCCC2)C(=O)N(C)[C@H](C(=O)N(C)CC)CC(=O)N1C [PP1569] | – | – | – | – | – | Kd [1, 4]: 0.11 nM; NRAS/KRAS (ratio of KD value for NRAS to KD value for KRAS) ([2]; KD ratio class): A (a compound having 10 or more and less than 20 is denoted as A); HRAS/KRAS (ratio of KD value for HRAS to KD value for KRAS) ([3]; KD ratio class): B (a compound having 3 or more and less than 10 is denoted as B)
CCCN1C(=O)CN(C)C(=O)CN(C)C(=O)[C@H]([C@@H](C)CC)NC(=O)[C@H](CC(C)C)N(C)C(=O)C[C@@H](C(=O)N(C)C)N(C)C(=O)[C@H](C2CCCC2)N(C)C(=O)[C@](C)(Cc2ccccc2)NC(=O)[C@@H]2CCCN2C(=O)[C@H](CCc2cc(F)c(C(F)(F)F)c(F)c2)NC(=O)CN(C)C(=O)[C@@H]1Cc1ccc(C(F)(F)F)cc1 [PP0740] ([NMeL]I[Sar][Sar][NPrPhe(4-CF3)][Sar][hPhe(3,5-F2-4-CF3)]P[αMeF][NMeGly(cPent)][NMeD]-NMe2; lactam N-11) | 0.47 | – | – | B (a compound having 3 or more and less than 10 is denoted as B) | C (A compound having a KD ratio of 0.1 or more and less than 3 is denoted as C) | –
CCCN1CC(=O)N(C)[C@H]2C/C=C\CCN(C2=O)[C@@H](Cc2ccc(C(F)(F)F)cc2)C(=O)N(C)CC(=O)N[C@@H](CCc2cc(F)c(C(F)(F)F)c(F)c2)C(=O)N2C[C@H](OCC)C[C@H]2C(=O)NC2(CCC2)C(=O)N(C)[C@@H](C2CCCC2)C(=O)N(C)[C@H](C(=O)N(C)C)CC(=O)N(C)[C@@H](CC)C(=O)N[C@@H]([C@@H](C)CC)C1=O [PP1053] | – | A (a compound having 10 or more and less than 20 is denoted as A) | A (a compound having 10 or more and less than 20 is denoted as A) | – | – | Kd ([1]; SPR, Single Cycle Kinetics): 0.23 nM
C=CCCN1C(=O)[C@@H]2CCN2C(=O)[C@H](C)N(C)C(=O)[C@H]([C@@H](C)CC)NC(=O)[C@H](CC(C)C)N(C)C(=O)C[C@@H](C(=O)N2CCOCC2)N(C)C(=O)[C@H](C2CCCC2)N(C)C(=O)C2(CCCC2)NC(=O)[C@@H]2CCCN2C(=O)[C@H](CCc2ccc(C(F)(F)F)c(Cl)c2)NC(=O)CN(C)C(=O)[C@@H]1Cc1ccc(C(F)(F)F)cc1 [PP0115] ([NMeL]I[NMeA][Aze][X23][Sar][hPhe(3-Cl-4-CF3)]P[Ac5c][NMeGly(cPent)][NMeD]-Morpholide; lactam N-11) | 0.21 | C (A compound having a KD ratio of 0.1 or more and less than 3 is denoted as C) | C (A compound having a KD ratio of 0.1 or more and less than 3 is denoted as C) | – | – | –
CCO[C@@H]1C[C@H]2C(=O)NC3(CC(F)(F)C3)C(=O)N(C)[C@@H](C3CCCC3)C(=O)N(C)C(C3CCCCC3)CC(=O)N(C)[C@@H](COC)C(=O)N[C@@H]([C@@H](C)CC)C(=O)N(C)CC(=O)N(C)[C@H]3C/C=C\CCN(C3=O)[C@@H](Cc3ccc(C(F)(F)F)cc3)C(=O)N(C)CC(=O)N[C@@H](CCc3cc(F)c(C(F)(F)F)c(F)c3)C(=O)N2C1 (stereo partly drawn) [PP1586] | – | – | – | – | – | Kd [1, 4]: 0.76 nM; NRAS/KRAS (ratio of KD value for NRAS to KD value for KRAS) ([2]; KD ratio class): A (a compound having 10 or more and less than 20 is denoted as A); HRAS/KRAS (ratio of KD value for HRAS to KD value for KRAS) ([3]; KD ratio class): A (a compound having 10 or more and less than 20 is denoted as A)
CCCN1C(=O)CN(C)C(=O)CNC(=O)[C@H]([C@@H](C)CC)NC(=O)[C@H](CC(C)C)N(C)C(=O)C[C@@H](C(=O)N2CCOCC2)NC(=O)[C@H](C2CCCC2)N(C)C(=O)C2(CCCC2)NC(=O)[C@@H]2C[C@@H](OCC)CN2C(=O)[C@H](CCc2ccc(C(F)(F)F)c(Cl)c2)NC(=O)CN(C)C(=O)[C@@H]1Cc1ccc(C(F)(F)F)cc1 [PP0329] ([NMeL]IG[Sar][NPrPhe(4-CF3)][Sar][hPhe(3-Cl-4-CF3)][Hyp](Et)[Ac5c][NMeGly(cPent)]D-Morpholide; lactam N-11) | 0.74 | B (a compound having 3 or more and less than 10 is denoted as B) | C (A compound having a KD ratio of 0.1 or more and less than 3 is denoted as C) | – | – | –
CCC[C@@H]1C[C@H]2C(=O)NC3(CC(C)(C)C3)C(=O)N(C)[C@@H](C3CCCC3)C(=O)N(C)[C@H](C(=O)N(C)C)CC(=O)N(C)[C@@H](CC)C(=O)N[C@@H]([C@@H](C)CC)C(=O)N(C)CC(=O)N(C)[C@H]3C/C=C\CCN(C3=O)[C@@H](Cc3ccc(C)cc3)C(=O)N(C)CC(=O)N[C@@H](CCc3cc(F)c(C(F)(F)F)c(F)c3)C(=O)N2C1 [PP2208] | – | A (a compound having 10 or more and less than 20 is denoted as A) | A (a compound having 10 or more and less than 20 is denoted as A) | – | – | Kd ([1]; SPR, Single Cycle Kinetics): 0.2 nM
CC[C@H](C)[C@@H]1NC(=O)[C@H](CC(C)C)N(C)C(=O)C[C@@H](C(=O)N2CCOCC2)N(C)C(=O)[C@H](C2CCCC2)N(C)C(=O)C2(CCCC2)NC(=O)[C@@H]2CCCN2C(=O)[C@H](CCc2ccc(C(F)(F)F)c(Cl)c2)NC(=O)CN(C)C(=O)[C@H](Cc2ccc(F)cc2)N2CCCCC[C@@H](C2=O)N(C)C(=O)CN(C)C1=O [PP0612] | 0.39 | – | – | B (a compound having 3 or more and less than 10 is denoted as B) | B (a compound having 3 or more and less than 10 is denoted as B) | –
CCCN1C(=O)[C@@H]2CCN2C(=O)CN(C)C(=O)[C@H]([C@@H](C)CC)NC(=O)[C@H](CC(C)C)N(C)C(=O)C[C@@H](C(=O)N2CCOCC2)N(C)C(=O)[C@H](C2CCCC2)N(C)C(=O)[C@](C)(CC)NC(=O)[C@@H]2CCCN2C(=O)[C@H](CCc2cc(F)c(C(F)(F)F)c(F)c2)NC(=O)CN(C)C(=O)[C@@H]1Cc1ccc(C(F)(F)F)cc1 [PP0790] ([NMeL]I[Sar][Aze][NPrPhe(4-CF3)][Sar][hPhe(3,5-F2-4-CF3)]P[Iva][NMeGly(cPent)][NMeD]-Morpholide; lactam N-11) | 0.56 | – | – | C (A compound having a KD ratio of 0.1 or more and less than 3 is denoted as C) | B (a compound having 3 or more and less than 10 is denoted as B) | –
